One series has as its system cells. Put plainly: Standard cell attachment assay. Format: cell-based. Particulars: for CELL ATTACHMENT ASSAY RESULTS, BDDE: peptide coupled to HA by epoxide (BDDE) method; for CELL ATTACHMENT ASSAY RESULTS, SODIUM PERIODATE: peptide coupled to HA by sodium periodate method; for CELL ATTACHMENT ASSAY RESULTS, TRESYL CHLORIDE: peptide coupled to HA by tresyl chloride method. More on the design: key: + = positive cell attachment; - = no cell attachment. As to the method: The conjugates prepared by the above described methods, as well as conjugates containing other RGD-peptide sequences, were tested for cell attachment using the following procedures.
New subcultures are made the day before the assay and allowed to grow to 75-80% confluency. When a 100×20 mm dish was 80-90% confluent the cells were detached by adding 4 ml of trypsin/EDTA. When the cells become rounded they are suspended by adding 6 ml of complete media to the 4 ml of trypsin/EDTA (10 ml total). Forty to fifty percent of the cell suspensions were transferred to a new 100×20 mm dish and cultured as usual. One 100×20 mm dish is sufficient to perform 6 cell attachments.
Samples to be tested are placed in 0.5 ml blocking solution (HBSS, 3% BSA, 25 mM Hepes pH 7.0) until needed. Each 100×20 mm dish was trypsinized using 4 ml of trypsin/EDTA for approximately 10 minutes or until cells were easily detached. Cells should not be detached too soon or they will remain aggregated during the cell attachment assay. It is desirable to obtain a good single cell suspension. If clumps of cells are observed let them settle out before using and adjust for the loss of cells in the assay.
The cells were detached from the plate using 6 ml of serum free media (SFM) supplemented with ITS+ (Insulin Transferrin Selenium (Collaborative Research, Inc., Bedford, Mass.), SFM+ITS+=SFM+) for a total volume of 10 ml (4 ml of trypsin/EDTA+6 ml of SFM+). The cells were centrifuged one time to pellet the cells and then they were resuspended in 5 ml of soybean trypsin inhibitor (SBTI) diluted in SFM+. The cells were incubated in SBTI/SFM+ for 10 minutes in a 37° C. water bath. While trypsin was being inactivated, the blocking buyer was removed and the samples suspended in 1 ml of SFM+.
Cells were centrifuged 1 time to remove SBTI. Resuspended cells in 6 ml of SFM+ created a good single cell suspension. If necessary, the resuspended cells can sit on the bench for 5 minutes to let aggregates settle to the bottom before applying to the matrices. Approximately 1 ml of cell suspension per matrix (1-2 mg) was used. The matrix/cells were placed on a rocker in the incubator and cell attachment allowed to go for one to one and half hours. Thereafter, samples were transferred to a 12 well dish and washed 2 times with PBS using an orbital shaker. Neutral red solution (diluted 1:100) was added to PBS and incubated with the cells for 20 minutes on an orbital shaker. Two mls of stain/fix (PBS, 8% formaldehyde, crystal violet 0.0008%) was added and staining allowed to proceed for 2 hours at room temperature on the orbital shaker. Formaldehyde solution was removed and distilled water added. Cell attachment was assessed by microscopy.

The subject of series [1] is full thickness wounds in guinea pigs. In words: Full thickness wounds in guinea pigs. Type of series: in vivo, guinea pig. Particulars: Alcian staining; for residence time in the wound bed: Epoxide (BDDE) method; for residence time: Sodium periodate method; for residence time in the dermal wound: Tresyl chloride method, BDDE cross-linked HA created at pH 6. As to the method:
Following the procedures for the full thickness wound model in guinea pigs described in Cheng et al., Arch. Dermatol. 124:221-226 (1988), which is incorporated herein by reference, various peptide-HA conjugates prepared by the above-described methods were analyzed.
The residence times were determined by Alcian staining and were as follows: […]

Square brackets hold non-standard residues; d marks the D form. Ends that are not written are not given here.

For “G R R R G G R G D I PNH2 (GRRRGGRGDIP-NH2; also: hyaluronate conjugate) [SEQ ID No. 7, RGD peptide, tested conjugated to hyaluronate (HA)]”, in the series with cells, the “CELL ATTACHMENT ASSAY RESULTS, BDDE” value is reported as “+”; the “CELL ATTACHMENT ASSAY RESULTS, SODIUM PERIODATE” value is given as “-”; the “CELL ATTACHMENT ASSAY RESULTS, TRESYL CHLORIDE” value is “+”.
On to “Ac G dR dR dR dR dR G G G dR G D S P A S S K (Ac-G[dR][dR][dR][dR][dR]GGG[dR]GDSPASSK; also: hyaluronate conjugate) [SEQ ID No. 5, RGD peptide, tested conjugated to hyaluronate (HA)]”, for which, in series [1], the “residence time in the wound bed” value was in the range of 7 to 10 days, the residence time is 7 to 10 days and the “residence time in the dermal wound” value lay within 10 to 14 days. In addition, in the series on cells, the “CELL ATTACHMENT ASSAY RESULTS, BDDE” value is on record as “+” and the “CELL ATTACHMENT ASSAY RESULTS, SODIUM PERIODATE” value is “+”.
On to “G R R R R R G R G D I P TNH2 (GRRRRRGRGDIPT-NH2; also: hyaluronate conjugate) [SEQ ID No. 2, RGD peptide, tested conjugated to hyaluronate (HA)]”, for which, in the series on cells, the “CELL ATTACHMENT ASSAY RESULTS, BDDE” value is given as “+”; the “CELL ATTACHMENT ASSAY RESULTS, SODIUM PERIODATE” value is “+”; the “CELL ATTACHMENT ASSAY RESULTS, TRESYL CHLORIDE” value is listed as “+”.
For the substance “Ac G R R R R R G G G R G D I P KNH2 (Ac-GRRRRRGGGRGDIPK-NH2; also: hyaluronate conjugate) [SEQ ID No. 13, RGD peptide, tested conjugated to hyaluronate (HA)]”, in the series with cells, the “CELL ATTACHMENT ASSAY RESULTS, SODIUM PERIODATE” value is listed as “+” and the “CELL ATTACHMENT ASSAY RESULTS, TRESYL CHLORIDE” value is listed as “+”.
As to “G R R R R G G G R G D I P TNH2 (GRRRRGGGRGDIPT-NH2; also: hyaluronate conjugate) [SEQ ID No. 4, RGD peptide, tested conjugated to hyaluronate (HA)]”, in the series on cells, the “CELL ATTACHMENT ASSAY RESULTS, BDDE” value was “+”; the “CELL ATTACHMENT ASSAY RESULTS, SODIUM PERIODATE” value was “+”; the “CELL ATTACHMENT ASSAY RESULTS, TRESYL CHLORIDE” value was “+”.
Regarding “G R R G R R G R G D I P TNH2 (GRRGRRGRGDIPT-NH2; also: hyaluronate conjugate) [SEQ ID No. 18, RGD peptide, tested conjugated to hyaluronate (HA)]”, in the series with cells, the “CELL ATTACHMENT ASSAY RESULTS, BDDE” value was “-” and the “CELL ATTACHMENT ASSAY RESULTS, SODIUM PERIODATE” value is listed as “+”.
Take “R R R G R G D I P TNH2 (RRRGRGDIPT-NH2; also: hyaluronate conjugate) [SEQ ID No. 11, RGD peptide, tested conjugated to hyaluronate (HA)]”: the “CELL ATTACHMENT ASSAY RESULTS, BDDE” value with cells was “+”.
As to “Ac R R G R G D I P KNH2 (Ac-RRGRGDIPK-NH2; also: hyaluronate conjugate) [SEQ ID No. 14, RGD peptide, tested conjugated to hyaluronate (HA)]”, in the series with cells, the “CELL ATTACHMENT ASSAY RESULTS, SODIUM PERIODATE” value is given as “-” and the “CELL ATTACHMENT ASSAY RESULTS, TRESYL CHLORIDE” value is on record as “+”.
Take “G R R G R R G R G D TNH2 (GRRGRRGRGDT-NH2; also: hyaluronate conjugate) [SEQ ID No. 19, RGD peptide, tested conjugated to hyaluronate (HA)]”: the residence time in series [1] was 7 to 10 days.
Consider “G R R R R R G G R G D I P TNH2 (GRRRRRGGRGDIPT-NH2; also: hyaluronate conjugate) [SEQ ID No. 3, RGD peptide, tested conjugated to hyaluronate (HA)]”, for which, in the series on cells, the “CELL ATTACHMENT ASSAY RESULTS, BDDE” value is “+”; the “CELL ATTACHMENT ASSAY RESULTS, SODIUM PERIODATE” value is “+”; the “CELL ATTACHMENT ASSAY RESULTS, TRESYL CHLORIDE” value is listed as “+”.
With “R R R R G R G D I P TNH2 (RRRRGRGDIPT-NH2; also: hyaluronate conjugate) [SEQ ID No. 10, RGD peptide, tested conjugated to hyaluronate (HA)]”, in the series with cells, the “CELL ATTACHMENT ASSAY RESULTS, BDDE” value is given as “+” and the “CELL ATTACHMENT ASSAY RESULTS, SODIUM PERIODATE” value is reported as “+”.
Take “G R R R G G R G D I P TNH2 (GRRRGGRGDIPT-NH2; also: hyaluronate conjugate) [SEQ ID No. 9, RGD peptide, tested conjugated to hyaluronate (HA)]”: in the series on cells, the “CELL ATTACHMENT ASSAY RESULTS, BDDE” value is recorded as “+”; the “CELL ATTACHMENT ASSAY RESULTS, SODIUM PERIODATE” value was “-”; the “CELL ATTACHMENT ASSAY RESULTS, TRESYL CHLORIDE” value was “+”.
On to “G R R R G G G R G D I P TNH2 (GRRRGGGRGDIPT-NH2; also: hyaluronate conjugate) [SEQ ID No. 8, RGD peptide, tested conjugated to hyaluronate (HA)]”, for which, in the series with cells, the “CELL ATTACHMENT ASSAY RESULTS, BDDE” value is “+”; the “CELL ATTACHMENT ASSAY RESULTS, SODIUM PERIODATE” value was “-”; the “CELL ATTACHMENT ASSAY RESULTS, TRESYL CHLORIDE” value is reported as “+”.
In the case of “Ac R R R G G R G D I P KNH2 (Ac-RRRGGRGDIPK-NH2; also: hyaluronate conjugate) [SEQ ID No. 6, RGD peptide, tested conjugated to hyaluronate (HA)]”, in the series with cells, the “CELL ATTACHMENT ASSAY RESULTS, BDDE” value is on record as “+”; the “CELL ATTACHMENT ASSAY RESULTS, SODIUM PERIODATE” value was “-”; the “CELL ATTACHMENT ASSAY RESULTS, TRESYL CHLORIDE” value was “+”.
“G R R R R R G G G R G D I PNH2 (GRRRRRGGGRGDIP-NH2; also: hyaluronate conjugate) [SEQ ID No. 12, RGD peptide, tested conjugated to hyaluronate (HA)]” returned a residence time in series [1] of 7 to 10 days. Moreover, in the series on cells, the “CELL ATTACHMENT ASSAY RESULTS, SODIUM PERIODATE” value is “+” and the “CELL ATTACHMENT ASSAY RESULTS, TRESYL CHLORIDE” value is “+”.
Take “G dR dR dR dR dR G G G dR G D S P A S S K (G[dR][dR][dR][dR][dR]GGG[dR]GDSPASSK; also: hyaluronate conjugate) [SEQ ID No. 1, RGD peptide, tested conjugated to hyaluronate (HA)]”: in series [1], the “residence time in the wound bed” value is 7 to 10 days, the residence time result is “at least 30 days” and the “residence time in the dermal wound” value lay in the range of 10 to 14 days. Besides, in the series on cells, the “CELL ATTACHMENT ASSAY RESULTS, BDDE” value is “+”; the “CELL ATTACHMENT ASSAY RESULTS, SODIUM PERIODATE” value is given as “+”; the “CELL ATTACHMENT ASSAY RESULTS, TRESYL CHLORIDE” value is listed as “+”.

The values above are taken from patent US5677276A, “Immobilization of peptides to hyaluronate” (La Jolla Cancer Research Foundation, priority 1995, dated 1997).
